Tested on: hypertensive subjects
Assay: 24-hour ambulatory blood pressure monitoring (ABPM), incl. nighttime dip
Format: in vivo, human
Settings: Part 1
Procedure: Ambulatory blood pressure monitoring was accomplished with an ambulatory blood pressure monitoring device that consists of a blood pressure cuff worn on a subject's arm attached to a small recording device that is typically attached to the subject's belt or waistband.
The ABPM device is worn for 24 hours. Throughout that period, the device records the subject's blood pressure at regular intervals, during the subject's routine daily activities and while they are sleeping. The ABPM thus provides a complete record of the subject's blood pressure over a 24-hour period.
24-hour ABPM was measured in the clinic at baseline and Study Week 7. If, for any reason, the ABPM procedure was deemed a failure at the end of Study Week 7, it may have been repeated at Study Week 8 and therefore no imputation was employed regardless of use of rescue medications. Additionally, ABPM was also collected at the end of Study Week 4 in Part 2. If a repeat test was performed, it supersedes the original test results for that visit.
Specific derived variables based on ABPM measurements include mean 24-hour, mean Daytime, and mean Nighttime of SBP, DBP, and heart rate.
Change from baseline to Week 7 in 24-hour mean SBP (and DBP) based on ABPM will be analyzed using an ANCOVA with a term for treatment group and a baseline mean 24-hour value as a covariate.
The nighttime dip is defined as
100%×(mean daytime SBP−mean nighttime SBP)/mean daytime SBP
It is expressed as a percentage and is summarized by treatment group and visit using descriptive statistics. In addition, the number and percentage of subjects with nighttime dip in each of the dipper categories (Bloomfield & Park, 2015) is presented by treatment group and visit. The categories are: • (a) <10% • (b) 10-20% inclusive • (c) >20%
Secondary endpoints of this study were: • (a) Change in 24-hour ambulatory blood pressure monitoring (ABPM) parameters (systolic and diastolic) from baseline to the end of Study Week 7. • (b) Change in office-measured SBP from baseline to the end of Study Weeks 1, 2, 3, 4, 5, 6, and 7. • (c) Change in office-measured diastolic blood pressure (DBP) from baseline to the end of Study Weeks 1, 2, 3, 4, 5, 6, 7, and 8. • (d) Proportion of subjects who achieve office-measured BP of ≤130/80 mm Hg by the end of Study Week 8.

[1] = 25 mg BID, End of Treatment, FAS post-hoc

## CC(=O)N[C@H]1CC[C@H](NC(=O)CN2CCN(c3nncc(-c4ccc(C)cc4)n3)CC2)CC1 [Compound A HBr]
12.5 mg QD, EoT, FAS
  Daytime Mean SBP (ABPM), Mean (SD): 141.13 (15.62) mmHg
  Nighttime Mean DBP (ABPM), Mean (SD): 74.29 (9.59) mmHg
  Nighttime Mean SBP (ABPM), Mean (SD): 132.00 (18.11) mmHg
  Subjects with nighttime dip 10-20% in 24-hour systolic ABPM: 5 (35.7) n (%)
  Subjects with nighttime dip <10% in 24-hour systolic ABPM: 9 (64.3) n (%)
  Subjects with nighttime dip >20% in 24-hour systolic ABPM: 0 n (%)
12.5 mg QD, FAS
  24-hr Mean DBP (ABPM) CFB to EoT, Mean (SD): −2.27 (8.35) mmHg
  24-hr Mean MAP (ABPM) CFB to EoT, Mean (SD): −3.73 (12.21) mmHg
  24-hr Mean SBP (ABPM) CFB to EoT, Mean (SD): −5.20 (16.55) mmHg
  Daytime Mean DBP (ABPM) CFB to EoT, Mean (SD): −2.60 (8.43) mmHg
  Daytime Mean SBP (ABPM) CFB to EoT, Mean (SD): −4.80 (15.10) mmHg
  Nighttime Mean DBP (ABPM) CFB to EoT, Mean (SD): −3.21 (9.55) mmHg
  Nighttime Mean SBP (ABPM) CFB to EoT, Mean (SD): −5.43 (20.36) mmHg
[1]
  LSM Δ with Placebo, 24-hr DBP (ABPM, ANCOVA): −5.13 mmHg
  LSM Δ with Placebo, 24-hr Mean MAP (ABPM, ANCOVA): −6.68 mmHg
  LSM Δ with Placebo, 24-hr SBP (ABPM, ANCOVA): −8.04 mmHg
  LSM Δ with Placebo, Daytime Mean DBP (ABPM, ANCOVA): −5.64 mmHg
  LSM Δ with Placebo, Daytime Mean SBP (ABPM, ANCOVA): −8.76 mmHg
  LSM Δ with Placebo, Mean Central DBP (ABPM, ANCOVA): −7.36 mmHg
  LSM Δ with Placebo, Mean Central Mean BP (ABPM, ANCOVA): −8.87 mmHg
  LSM Δ with Placebo, Mean Central SBP (ABPM, ANCOVA): −10.19 mmHg
  LSM Δ with Placebo, Nighttime Mean DBP (ABPM, ANCOVA): −3.28 mmHg
  LSM Δ with Placebo, Nighttime Mean SBP (ABPM, ANCOVA): −4.66 mmHg
25 mg BID, EoT, FAS
  24-hr Mean DBP (ABPM), Mean (SD): 76.50 (10.59) mmHg
  24-hr Mean MAP (ABPM), Mean (SD): 103.10 (10.92) mmHg
  24-hr Mean SBP (ABPM), Mean (SD): 129.69 (12.57) mmHg
  Daytime Mean DBP (ABPM), Mean (SD): 79.04 (10.41) mmHg
  Daytime Mean SBP (ABPM), Mean (SD): 132.58 (13.62) mmHg
  Nighttime Mean DBP (ABPM), Mean (SD): 71.38 (11.94) mmHg
  Nighttime Mean SBP (ABPM), Mean (SD): 123.92 (12.17) mmHg
  Subjects with nighttime dip 10-20% in 24-hour systolic ABPM: 4 (16.7) n (%)
  Subjects with nighttime dip <10% in 24-hour systolic ABPM: 19 (79.2) n (%)
  Subjects with nighttime dip >20% in 24-hour systolic ABPM: 1 (4.2) n (%)
25 mg BID, FAS
  24-hr Mean DBP (ABPM) CFB to EoT, Mean (SD): −6.12 (9.77) mmHg
  24-hr Mean MAP (ABPM) CFB to EoT, Mean (SD): −7.42 (12.49) mmHg
  24-hr Mean SBP (ABPM) CFB to EoT, Mean (SD): −8.73 (15.67) mmHg
  Daytime Mean DBP (ABPM) CFB to EoT, Mean (SD): −6.23 (10.43) mmHg
  Daytime Mean SBP (ABPM) CFB to EoT, Mean (SD): −9.08 (17.41) mmHg
  Nighttime Mean DBP (ABPM) CFB to EoT, Mean (SD): −4.13 (10.86) mmHg
  Nighttime Mean SBP (ABPM) CFB to EoT, Mean (SD): −5.96 (15.37) mmHg
50 mg QD, End of Treatment, FAS post-hoc
  LSM Δ with Placebo, 24-hr DBP (ABPM, ANCOVA): −2.74 mmHg
